Common to all, as to test: NCI tumour cell line growth inhibition, 48 h
Assay [1] deals with 786-0 renal.
Assay [2] has as its system COLO 205 colon.
The test system of assay [3] is HCT-15 colon.
Assay [4] concerns LOX IMVI melanoma.
In assay [5] the test system is NCI/ADR-RES ovarian.
Assay [6] deals with SF-295 CNS.
The test system of assay [7] is SK-MEL-2 melanoma.
Assay [8] has as its system SN12C renal.
Assay [9] relates to TK-10 renal.
Assay [10] has as its system SK-OV-3 ovarian.
The subject of assay [11] is RXF 393 renal.

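Test compounds were applied to cells in 96-well plates for 48 hours at 5 doses. GI50 = concentration required for 50% inhibition of growth. TGI marks complete inhibition of growth.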

With `Fc1ccc(OCc2ccc3nc(-c4ccccc4)c(Cl)nc3c2)cc1`, the TGI is 56.9 µM in assay [1]; more than 100 µM in assay [2]; more than 100 µM in assay [3]; more than 100 µM in assay [4]; more than 100 µM in assay [5]; 50.3 µM in assay [6]. Further, the TGI in assay [7] was more than 100 µM; in assay [8], more than 100 µM; in assay [9], 90.1 µM.

With `CN(C)CCN1C(=O)N(CCN(C)C)c2c3cc(O)ccc3nc3c([N+](=O)[O-])ccc1c23`, the TGI in assay [1] was 19 µM; in assay [2], 23.3 µM; in assay [3], 20.8 µM; in [4] it was 24.3 µM; in [5], 86.3 µM; in [7] it was 59.1 µM. Further, the results for the TGI in assay [8] and in assay [9] were 23.6 µM and 33.6 µM, respectively.

In the case of `O=C(O)Cn1c[n+](NC(=O)Cc2ccccc2)cn1`, the TGI in [1], in [2], in assay [3], in assay [4], in [5] and in [6] was more than 10 µM each time. Besides, the TGI in assay [10], in assay [8] and in assay [9] was more than 10 µM in each case.

Regarding `COc1ccc(CCn2ccc(=O)c(O)c2C)cc1OC`, the TGI in [1] was 22.3 µM; in assay [2] it was more than 100 µM; in assay [3] it was more than 100 µM; in [4], 78.9 µM; in assay [5], 57.9 µM; in [6], more than 100 µM. Further, the TGI in assay [10] and in assay [9] was more than 100 µM throughout.

In the case of `CC(=O)Oc1ccc2c(c1)O/C(=C\c1ccc(O)cc1)C2=O`, the TGI in [1], in assay [2], in assay [3], in assay [5], in [11] and in assay [6] was more than 100 µM each time. Further, the TGI in assay [10], in assay [8] and in assay [9] was more than 100 µM each time.

`O/N=C/[C@H]1COC2(CCCCC2)O1`: the TGI in assay [1], in assay [2], in assay [3], in assay [4], in [5] and in assay [6] was more than 100 µM each time. The TGI in assay [7], in [10], in assay [8] and in [9] was more than 100 µM each time.

Turning to `COc1ccc(C(=O)/C=C/c2ccc(OCCCCCCCCCCOc3ccc(/C=C/C(=O)c4ccc(OC)c(OC)c4)cc3)cc2)c(OC)c1`, the TGI in [1], in assay [2], in assay [3], in assay [5], in assay [11] and in [6] was more than 100 µM each time. Further, the TGI in [7], in assay [10], in assay [8] and in assay [9] was more than 100 µM in each case.

As for `O=C1C=CC(=O)c2c(O)c(N3CCN(c4ncccn4)CC3)c(Cl)c(O)c21`, the TGI was found to be 3.1 µM in [1]; 3.36 µM in assay [2]; 3.55 µM in assay [4]; 8.69 µM in assay [5]; 3.51 µM in assay [11]; 25.5 µM in [6]. Further, the TGI in [7] worked out at 3.47 µM; in assay [10], 38.6 µM; in assay [8] it was 3.43 µM; in assay [9] it was 3.47 µM.

`CO[C@H](C)[C@](O)(C(=O)OCC1=CCN2CC[C@@H](O)[C@H]12)C(C)C`: the TGI in [1], in assay [2], in assay [3], in assay [4], in [5] and in assay [6] was more than 100 µM throughout. Moreover, the TGI in assay [7], in [10], in assay [8] and in assay [9] was more than 100 µM throughout.

Turning to `Nn1nnc2ccccc21`, the TGI in assay [1], in assay [2], in assay [3], in [4], in [5] and in [6] was more than 100 µM throughout. Besides, the TGI in assay [10], in assay [8] and in assay [9] was more than 100 µM throughout.

As to `O=C1c2cc3c(cc2-c2c1c1cc(F)c(F)cc1c(=O)n2C[C@H](O)CO)OCO3`, the GI50 was 103 nM in [2]; 190 nM in [3]; 39.6 nM in assay [5]; 121 nM in assay [11]; 243 nM in assay [7]; 48.1 nM in [10]. Besides, the GI50 in assay [8] was 33 nM; in assay [9] it was 335 nM. Further, the TGI is 1.2 µM in assay [2]; 1.74 µM in [3]; 0.468 µM in assay [5]; 0.335 µM in assay [11]; 0.625 µM in assay [7]; 0.641 µM in assay [10]. In addition, the TGI came out at 0.324 µM in assay [8] and 2.11 µM in assay [9].

As to `C=C1C[C@@H]2CC[C@@]34CC5O[C@H]6C(O[C@H]7CC[C@H](CC(=O)O[C@@H]8[C@@H](C)[C@@H]9O[C@@H]%10C[C@]%11(C[C@@H]%12O[C@]%13(C[C@H](C)[C@@H]%14O[C@@H]%15CC(C(COC(C)=O)OC(C)=O)O[C@@H]%15C[C@@H]%14O%13)C[C@H](C)[C@@H]%12O%11)O[C@@H]%10C[C@@H]9O[C@H]8CC8O[C@@H](CC[C@@H]1O2)C[C@@H](C)C8(O)CO)O[C@@H]7[C@@H]6O3)[C@H]5O4` (stereo not given in full), the TGI in assay [1], in assay [2], in [3], in assay [4], in [5] and in assay [6] was more than 1 µM in each case. Also, the TGI in assay [7], in assay [10], in assay [8] and in assay [9] was more than 1 µM throughout.

As to `CC(=O)OC1COC(N2c3ccccc3[C@@H]3CCc4c([nH]c5ccccc45)[C@@H]32)C(OC(C)=O)C1OC(C)=O` (mixture of isomers), the TGI in assay [2], in [3], in [6], in assay [7], in assay [10] and in [8] was more than 100 µM each time. The molecule also came in with a TGI in [9] of more than 100 µM.

Source of the values: PubChem BioAssay (NCI).
